Assay results published in patent US20200108032A1, “USE OF ISOFERULIC ACID, ISOFERULIC ACID-CONTAINING TRADITIONAL CHINESE MEDICINE EXTRACT AND CIMICIFUGAE RHIZOMA” (BEIJING DITAN HOSPITAL, CAPITAL MEDICAL UNIVERSITY, priority 2017, published 2020).

Key:
Type in all cases: in vivo, C57BL/6 mice
[1] = test system: serum cytokines TNF-α, IL-12, IL-6, MCP-1, IFN-γ; experiment: Serum cytokine secretion in mouse model of ConA hepatitis; details: MEAN ± SEM
Description: (§1) The test materials and animals were the same as those in Experimental Example 1.
(§2) Grouping: C57BL/6 mice, male, 18-20 g, after 1 day of adaptive breeding, the mice were randomly divided into 6 groups: normal control group; ConA model group, Cimicifugae rhizoma compatibility group, Cimicifugae rhizoma group, Cimicifugae rhizoma total phenolic acid group and isoferulic acid group.
(§3) Model preparation and drug administration: except the normal control group, mice were injected intravenously once at a dose of ConA 15 mg/kg. The dosages of each drug group were the same as those of Experimental Example 1.
(3) The effects of drugs in each treatment group on serum cytokine secretion in ConA mice were examined. Six mice from each group. Peripheral blood was collected 3 hours after ConA injection and serum was separated to detect the secretion of cytokines TNF-α, IL-12, IL-6 and MCP-1. Serum was separated 10 hours after ConA injection to detect cells factor IFN-γ secretion.

[2] = test system: anti-type II collagen antibody; experiment: Serum anti-type II collagen antibody content in CIA mice (ELISA); details: 21 days after second immunization
From the text: (§4) Test materials and animals: Consistent with Experimental Example 3. Anti-type II collagen antibody ELISA kit was purchased from Chondrex, Cytokine & Chemokine 36-Plex Mouse ProcartaPlex™ Panel 1A cytokine and chemokine detection kit was purchased from ThermoFisher.
(§5) Model preparation and drug administration: the drug dosage of each treatment group was the same as that of Experimental Example 3. After 21 days of the second immunization, the mice were anesthetized.
(2) The effects of each drug group on the anti-type II collagen antibody content in the serum of CIA mice were measured. Seven mice from each group were examined; peripheral blood was collected and separated from serum. Anti-type II collagen antibodies were detected with Elisa.

[3] = test system: mouse model of ConA hepatitis; experiment: Liver pathological damage (HE staining) in mouse model of ConA hepatitis; details: liver 10 hours after ConA 15 mg/kg; compared with the ConA group
Description: as §1, §2, §3
(2) The effects of each drug group on liver pathological damage in ConA mice were examined. Three mice in each group were sacrificed under anesthesia 10 hours after ConA injection. The left lobe of the liver was taken, cut into a size of about 5 mm^3, and placed in 10% formalin solution, and dehydrated, transparently impregnated with wax, embedded, sliced, and spread, and observed after staining;

Body weight of CIA mice = details: day 21 of the second immunization; MEAN ± SEM
From the text: The test materials and animals were the same as those in Experimental Example 3.
Model preparation and administration: same as in Experimental Example 3. On day 21 of the second immunization, the mice were weighed.

[4] = test system: CD48-CD11b+ positive granulocytes; experiment: Proportion of granulocytes in CIA arthritis mice (flow cytometry); details: CD48-CD11b+ granulocytes to white blood cells; 21 days after second immunization; MEAN ± SEM
From the text: Test materials and animals: CD48 PE and CD11b FITC antibodies were purchased from BD Pharmingen; RBC Lysis Buffer was purchased from Biolegend of the United States; other required reagents were the same as in Experimental Example 3.
Model preparation and drug administration: the administration dose of each treatment group was the same as that of Experimental Example 3. 21 days after the second immunization, the mice were anesthetized.
Animal: C57BL/6 mouse, purchased from Beijing Huafukang Biotechnology Co., Ltd.
Preparation of bone marrow single cell suspension: After anesthesia of C57BL/6 mice, the two pairs of femur and tibia of the mouse were separated, PBS was pipetted with a 2 mL syringe to flush the bone marrow cells into a flow tube, and pipetted repeatedly to obtain the bone marrow single cell suspension. The bone marrow was filtered into a flow tube with a 400-mesh strainer, discarded the supernatant after centrifugation, added 2 mL of RBC Lysis Buffer and lysed at room temperature for 15 min. Discarded the supernatant by centrifugation, harvested the bone marrow cells, resuspended by adding 1 mL of PBS, and repeatedly mixing by pipetting 100 μL into the flow tube for surface staining. […]

[5] = test system: joint tissue cytokines IL-9, IL-18 and MIP-2; experiment: Joint tissue cytokines in CIA arthritis mice (multi-factor detection); details: MEAN ± SEM
From the text: as §4, §5
(§6) (3) The effects of each drug group on cytokine secretion in serum and joint tissues of CIA mice were measured. Seven mice from each group were examined; peripheral blood was collected and separated from serum. Cytokines in serum were detected by multiple factors: IFN-γ, IL-6, IL-9, IL-12, IL-17A, IP-10, MCP-1, MCP-3. MIP-1α, MIP-1β, Eotaxin, and G-CSF; the right hind limb knees, joints and claws were taken and stored in liquid nitrogen for quick freezing, then homogenized and extracted protein. Multi-factor detection of cytokines in tissues: IL-9, IL-18 and MIP-2 secretion.

serum cytokines = experiment: Serum cytokines in CIA arthritis mice (multi-factor detection); details: MEAN ± SEM
From the text: as §4, §5, §6

[6] = serum 3 hours after ConA injection

COc1ccc(C=CC(=O)O)cc1O [isoferulic acid, 3-hydroxy-4-methoxycinnamic acid]
IL-6 [1, 6]: 1422 ± 214.2 pg/mL | IL-12 [1, 6]: 183.7 ± 33.4 pg/mL | MCP-1 [1, 6]: 5708 ± 145.5 pg/mL | TNF-α [1, 6]: 260.4 ± 119.5 pg/mL | IFN-γ ([1]; serum 10 hours after ConA injection): 574 ± 70.4 pg/mL | Anti-type II collagen antibody [2]: 9610 ± 664 Units/ml | liver pathological damage (HE staining) [3]: reduced hepatocyte degeneration and necrosis | Body weight (Body weight of CIA mice): 21.6 ± 0.4 g | proportion of granulocytes, Bone marrow [4]: 44.6 ± 5.1 % | proportion of granulocytes, spleen [4]: 9 ± 4.4 % | Joint tissue IL-9 [5]: 3.2 ± 1.5 pg/mg | Joint tissue IL-18 [5]: 111.1 ± 125 pg/mg | Joint tissue MIP-2 [5]: 61.2 ± 45.8 pg/mg | Eotaxin (serum cytokines): 349.6 ± 85.4 pg/mL | G-CSF (serum cytokines): 4 ± 1.2 pg/mL | IL-6 (serum cytokines): 23.3 ± 21.6 pg/mL | IL-9 (serum cytokines): 15 ± 5.8 pg/mL | IL-12 (serum cytokines): 21.9 ± 3.5 pg/mL | IL-17A (serum cytokines): 4.9 ± 3.1 pg/mL | IP-10 (serum cytokines): 52.8 ± 20.8 pg/mL | MCP-1 (serum cytokines): 139.3 ± 43.4 pg/mL | MCP-3 (serum cytokines): 151.9 ± 20 pg/mL | MIP-1α (serum cytokines): 2.4 ± 0.6 pg/mL | MIP-1β (serum cytokines): 3.2 ± 1.1 pg/mL | IFN-γ (serum cytokines; isoferulic acid 5 mg/kg): 120.6 ± 37.1 pg/mL
